We go through 2 compounds from patent US10752587B2, “Homobispiperidinyl derivatives as liver X receptor beta agonists, compositions and their use” (Merck Sharp & Dohme Corp., priority 2015, dated 2020).

Assay [1] deals with T1, glutathione-S-transferase (GST) tagged LXRalpha LBD (ligand binding domain) (Homo sapiens, UniProt Q13133).
T1 construct: purchased Invitrogen pv4655
T1 sequence (Q13133 209-447 limits assumed): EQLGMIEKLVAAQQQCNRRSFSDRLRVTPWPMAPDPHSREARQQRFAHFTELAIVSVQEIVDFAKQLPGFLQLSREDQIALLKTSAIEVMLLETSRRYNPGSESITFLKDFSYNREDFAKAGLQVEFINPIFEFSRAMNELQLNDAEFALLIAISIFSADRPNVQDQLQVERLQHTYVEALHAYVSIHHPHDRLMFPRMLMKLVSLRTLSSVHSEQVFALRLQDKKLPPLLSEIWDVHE
Kind of assay: LanthaScreen TR-FRET Liver X Receptor Coactivator Assay, co-activator recruitment to LXRalpha LBD. The format is biochemical. Conditions: for Emax: efficacy at max dose, in relation to reference dual agonist T0901317, read-out: LXR alpha Activity @ max dose (%). The gist of the method: (§1)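 TR-FRET coactivator recruitment; compound + LBD, then fluorescein-coactivator peptide/Tb-anti-GST Ab mix; RT incubation; IP and Emax vs T0901317.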

Assay [2] deals with T2, glutathione-S-transferase (GST) tagged LXRbeta LBD (ligand binding domain) (Homo sapiens, UniProt P55055).
T2 construct: purchased Invitrogen pv4658.pps
T2 sequence (P55055 222-460 limits assumed): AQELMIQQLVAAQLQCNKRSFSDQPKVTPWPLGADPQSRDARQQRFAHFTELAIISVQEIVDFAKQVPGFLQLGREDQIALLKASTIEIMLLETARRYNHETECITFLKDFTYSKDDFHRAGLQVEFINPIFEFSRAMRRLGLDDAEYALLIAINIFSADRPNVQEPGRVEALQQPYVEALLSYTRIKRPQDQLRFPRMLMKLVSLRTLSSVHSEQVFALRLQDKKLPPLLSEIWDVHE
Kind of assay: LanthaScreen TR-FRET Liver X Receptor Coactivator Assay, co-activator recruitment to LXRbeta LBD. The conditions noted are these: for Emax: efficacy at max dose, in relation to reference dual agonist T0901317, read-out: LXR beta Activity @ max dose (%); for EC50: potency (Inflection Point, IP), co-activator recruitment to LXRbeta LBD, in relation to T0901317, read-out: LXR beta IP. Format: biochemical. The gist of the method:
as §1

Take `CNC(=O)c1ccc(N2CCC(CC3CN(C(=O)[C@](O)(c4cccc(OC)c4)C(F)(F)F)C3)CC2)cc1Cl` [Example 7-38, 2-chloro-N-methyl-4-[4-({1-[(2R)-3,3,3-trifluoro-2-hydroxy-2-(3-methoxyphenyl)propanoyl]azetidin-3-yl}methyl)piperidin-1-yl]benzamide]: the Emax in assay [1] was 1%; in assay [2], 67%. Also, in assay [1] (potency (Inflection Point, IP), co-activator recruitment to LXRalpha LBD, in relation to T0901317), the “LXR alpha IP (nM)” value was “NO IP”. For the same compound, in assay [2], the EC50 came to 136 nM.

Take `CN(C)C(=O)c1ccc(N2CCC(CC3CCN(C(=O)[C@](O)(c4ccccc4F)C(F)(F)F)CC3)CC2)nc1Cl` [Example 7-80, 2-chloro-N,N-dimethyl-6-[4-({1-[(2R)-3,3,3-trifluoro-2-(2-fluorophenyl)-2-hydroxypropanoyl]piperidin-4-yl}methyl)piperidin-1-yl]pyridine-3-carboxamide]: the results for the Emax in assay [1] and in assay [2] were 27% and 85%, respectively. The EC50 in assay [1] (potency (Inflection Point, IP), co-activator recruitment to LXRalpha LBD, in relation to T0901317, read-out: LXR alpha IP) was determined as 425 nM; in assay [2], 12 nM.
